Results reported in patent publication US20240067693A1, “POLYPEPTIDES AND USES THEREOF” (MEDIMMUNE LIMITED, priority 2020, published 2024).
Numbered stars: 1 amine (or outer) side, 2 acyl side, 3 side chain; on linkers, the order of the positions; unused ones are H or OH. Bridge positions count the residues as written; N and C are the ends. Square brackets hold non-standard residues; d marks the D form. Side chains are listed from the residue outwards. Peptide text beside a SMILES is read from it. * marks the point of attachment. C20 diacid = O=C(O)CCCCCCCCCCCCCCCCCCC(=O)*; C18 diacid = O=C(O)CCCCCCCCCCCCCCCCC(=O)*; γGlu = O=C(O)[C@H](CCC(=O)[*:2])N[*:1]; Dab = NCC[C@H](N)C(=O)O; Aib = CC(C)(N)C(=O)O

Tests used:
[1] = target: T1, human amylin receptor (calcitonin receptor co-expressed with receptor activity modifying protein, RAMP3) (hAMYR3) (Homo sapiens, UniProt O60896+P30988); experiment: cAMP production in 1321N1 cells with stable recombinant expression of human amylin receptor (hAMYR3); type: cell-based; conditions: for Ratio (selectivity hAMYR vs hCTR, ratio of EC50 values at the two receptors): EC50 hCTR / EC50 hAMYR3; for EC50: cAMP, 1321N1 cells, assay buffer with 0.1% BSA, read-out: EC50 (pM) hAMYR3
T1 construct: expressed in transfected cells
T1 sequence (P30988 25-474): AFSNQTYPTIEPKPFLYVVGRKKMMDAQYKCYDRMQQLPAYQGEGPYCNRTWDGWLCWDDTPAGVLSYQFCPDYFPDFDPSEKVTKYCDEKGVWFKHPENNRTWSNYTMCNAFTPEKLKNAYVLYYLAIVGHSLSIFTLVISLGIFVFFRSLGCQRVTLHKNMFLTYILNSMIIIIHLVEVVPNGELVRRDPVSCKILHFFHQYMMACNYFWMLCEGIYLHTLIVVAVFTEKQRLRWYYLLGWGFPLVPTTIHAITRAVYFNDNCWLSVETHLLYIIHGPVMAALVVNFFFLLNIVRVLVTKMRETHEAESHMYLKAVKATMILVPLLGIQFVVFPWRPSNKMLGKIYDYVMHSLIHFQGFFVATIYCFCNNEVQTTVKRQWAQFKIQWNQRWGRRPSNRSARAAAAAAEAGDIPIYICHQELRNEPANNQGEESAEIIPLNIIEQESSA
T1 sequence (O60896 24-148 partner): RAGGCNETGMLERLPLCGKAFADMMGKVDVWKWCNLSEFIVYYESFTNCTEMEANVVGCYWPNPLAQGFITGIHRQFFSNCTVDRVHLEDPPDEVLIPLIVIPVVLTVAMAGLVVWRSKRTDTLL
Procedure, shortened: (§1)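 Receptor-expressing cells (human receptors in 1321N1, rat receptors in HEK) incubated 30 min at room temperature with peptide in HBSS/HEPES pH 7.4, 0.1% BSA, 0.5 mM IBMX. cAMP read by HTRF; EC50 from 4-parameter fit as % of maximal amylin or calcitonin response.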

[2] = target: T2, human calcitonin receptor (hCTR) (Homo sapiens, UniProt P30988); experiment: cAMP production in 1321N1 cells with stable recombinant expression of human calcitonin receptor (hCTR); type: cell-based; conditions: cAMP, 1321N1 cells, assay buffer with 0.1% BSA; read-out: EC50 (pM) hCTR
T2 construct: expressed in transfected cells
T2 sequence (P30988 25-474): T1 sequence (P30988 25-474)
Procedure, shortened: as §1

Ratio (selectivity hAMYR vs hCTR, ratio of EC50 values at the two receptors) [1] | EC50 [2] [pM] | EC50 [1] [pM] | Structure (SMILES)
8 | 10200 | – | CC[C@H](C)[C@H](NC(=O)[C@H](C)NC(=O)[C@@H]1CCCN1C(=O)[C@H](Cc1ccccc1)NC(=O)[C@H](CC(N)=O)NC(=O)C(C)(C)NC(=O)[C@H](CO)NC(=O)[C@H](CO)NC(=O)[C@H](Cc1c[nH]cn1)NC(=O)[C@@H](NC(=O)[C@H](CC(C)C)NC(=O)[C@H](Cc1ccccc1)NC(=O)[C@H](CC(N)=O)NC(=O)[C@H](C)NC(=O)[C@H](CC(C)C)NC(=O)[C@H](CCCNC(=N)N)NC(=O)[C@H](CCC(N)=O)NC(=O)[C@@H](NC(=O)[C@H](C)NC(=O)[C@@H]1CSSC[C@H](NC(=O)[C@@H](N)CCCCNC(=O)CC[C@H](NC(=O)CC[C@H](NC(=O)CCCCCCCCCCCCCCCCCCC(=O)O)C(=O)O)C(=O)O)C(=O)N[C@@H](CC(N)=O)C(=O)N[C@@H]([C@@H](C)O)C(=O)N[C@@H](C)C(=O)N[C@@H]([C@@H](C)O)C(=O)N1)[C@@H](C)O)C(C)C)C(=O)N[C@@H](CC(C)C)C(=O)N[C@@H](CO)C(=O)N1CCC[C@H]1C(=O)N[C@H](C(=O)N[C@@H](CC(N)=O)C(=O)N[C@H](C(=O)NCC(=O)N[C@@H](CO)C(=O)N[C@@H](CCN)C(=O)N[C@H](C(=O)N[C@@H](Cc1ccc(O)cc1)C(N)=O)[C@@H](C)O)C(C)C)[C@@H](C)O [Peptide 125, K(γE-γE-C20diacid)[CNTATC]ATQRLANFLVHSS(Aib)NFPAILSPTNVGS(Dab)TY-amide] (H-K([γGlu-γGlu-C20 diacid])CNTATCATQRLANFLVHSS[Aib]NFPAILSPTNVGS[Dab]TY-NH2; disulfide 2-7; N-terminus assumed)
19 | 8450 | 445 | CC[C@H](C)[C@H](NC(=O)[C@@H]1CCCN1C(=O)CNC(=O)[C@H](Cc1ccccc1)NC(=O)[C@H](CC(N)=O)NC(=O)[C@H](CCN)NC(=O)[C@H](CO)NC(=O)[C@H](CO)NC(=O)[C@H](Cc1c[nH]cn1)NC(=O)C(C)(C)NC(=O)[C@H](CC(C)C)NC(=O)[C@H](Cc1ccccc1)NC(=O)[C@H](CC(N)=O)NC(=O)[C@H](C)NC(=O)[C@H](CC(C)C)NC(=O)[C@H](CCCNC(=N)N)NC(=O)[C@H](CCC(N)=O)NC(=O)[C@@H](NC(=O)[C@H](C)NC(=O)[C@@H]1CSSC[C@H](NC(=O)[C@H](CCCCN)NC(=O)[C@@H](N)CCCCNC(=O)CC[C@H](NC(=O)CCCCCCCCCCCCCCCCC(=O)O)C(=O)O)C(=O)N[C@@H](CC(N)=O)C(=O)N[C@@H]([C@@H](C)O)C(=O)N[C@@H](C)C(=O)N[C@@H]([C@@H](C)O)C(=O)N1)[C@@H](C)O)C(=O)N[C@@H](CC(C)C)C(=O)N1CCC[C@H]1C(=O)N1CCC[C@H]1C(=O)N[C@H](C(=O)N[C@@H](CC(N)=O)C(=O)N[C@H](C(=O)NCC(=O)N[C@@H](CO)C(=O)N[C@@H](CC(N)=O)C(=O)N[C@H](C(=O)N[C@@H](Cc1ccc(O)cc1)C(N)=O)[C@@H](C)O)C(C)C)[C@@H](C)O [Peptide 126, K(γE-C18diacid)K[CNTATC]ATQRLANFL(Aib)HSS(Dab)NFGPILPPTNVGSNTY-amide] (H-K([γGlu-C18 diacid])KCNTATCATQRLANFL[Aib]HSS[Dab]NFGPILPPTNVGSNTY-NH2; disulfide 3-8)
19.6 | 7130 | 364 | CC[C@H](C)[C@H](NC(=O)[C@@H]1CCCN1C(=O)CNC(=O)[C@H](Cc1ccccc1)NC(=O)[C@H](CC(N)=O)NC(=O)[C@H](CC(N)=O)NC(=O)[C@H](CO)NC(=O)[C@H](CO)NC(=O)[C@H](Cc1c[nH]cn1)NC(=O)C(C)(C)NC(=O)[C@H](CC(C)C)NC(=O)[C@H](Cc1ccccc1)NC(=O)[C@H](CC(N)=O)NC(=O)[C@H](C)NC(=O)[C@H](CC(C)C)NC(=O)[C@H](CCCNC(=N)N)NC(=O)[C@H](CCC(N)=O)NC(=O)[C@@H](NC(=O)[C@H](C)NC(=O)[C@@H]1CSSC[C@H](NC(=O)[C@@H](N)CCCCNC(=O)CC[C@H](NC(=O)CC[C@H](NC(=O)CCCCCCCCCCCCCCCCC(=O)O)C(=O)O)C(=O)O)C(=O)N[C@@H](CC(N)=O)C(=O)N[C@@H]([C@@H](C)O)C(=O)N[C@@H](C)C(=O)N[C@@H]([C@@H](C)O)C(=O)N1)[C@@H](C)O)C(=O)N[C@@H](CC(C)C)C(=O)N1CCC[C@H]1C(=O)N1CCC[C@H]1C(=O)N[C@H](C(=O)N[C@@H](CC(N)=O)C(=O)N[C@H](C(=O)NCC(=O)N[C@@H](CO)C(=O)N[C@@H](CC(N)=O)C(=O)N[C@H](C(=O)N[C@@H](Cc1ccc(O)cc1)C(N)=O)[C@@H](C)O)C(C)C)[C@@H](C)O [Peptide 127] (H-K([γGlu-γGlu-C18 diacid])CNTATCATQRLANFL[Aib]HSSNNFGPILPPTNVGSNTY-NH2; disulfide 2-7; N-terminus assumed)
4.8 | 568 | 118 | CC[C@H](C)[C@H](NC(=O)[C@@H]1CCCN1C(=O)CNC(=O)[C@H](Cc1ccccc1)NC(=O)[C@H](CC(N)=O)NC(=O)[C@H](CC(N)=O)NC(=O)[C@H](CO)NC(=O)[C@H](CO)NC(=O)[C@H](Cc1c[nH]cn1)NC(=O)C(C)(C)NC(=O)[C@H](CC(C)C)NC(=O)[C@H](Cc1ccccc1)NC(=O)[C@H](CCC(=O)O)NC(=O)[C@H](C)NC(=O)[C@H](CC(C)C)NC(=O)[C@H](CCCNC(=N)N)NC(=O)[C@H](CCC(N)=O)NC(=O)[C@@H](NC(=O)[C@H](C)NC(=O)[C@@H]1CSSC[C@H](NC(=O)[C@H](CCCCN)NC(=O)[C@@H](N)CCCCNC(=O)CC[C@H](NC(=O)CCCCCCCCCCCCCCCCC(=O)O)C(=O)O)C(=O)N[C@@H](CC(N)=O)C(=O)N[C@@H]([C@@H](C)O)C(=O)N[C@@H](C)C(=O)N[C@@H]([C@@H](C)O)C(=O)N1)[C@@H](C)O)C(=O)N[C@@H](CC(C)C)C(=O)N1CCC[C@H]1C(=O)N1CCC[C@H]1C(=O)N[C@H](C(=O)N[C@@H](CC(N)=O)C(=O)N[C@H](C(=O)NCC(=O)N[C@@H](CO)C(=O)N[C@@H](CC(N)=O)C(=O)N[C@H](C(=O)N[C@@H](Cc1ccc(O)cc1)C(N)=O)[C@@H](C)O)C(C)C)[C@@H](C)O [Peptide 128] (H-K([γGlu-C18 diacid])KCNTATCATQRLAEFL[Aib]HSSNNFGPILPPTNVGSNTY-NH2; disulfide 3-8; N-terminus assumed)
15 | 6690 | 446 | CC[C@H](C)[C@H](NC(=O)[C@@H]1CCCN1C(=O)CNC(=O)[C@H](Cc1ccccc1)NC(=O)[C@H](CC(N)=O)NC(=O)[C@H](Cc1c[nH]cn1)NC(=O)[C@H](CO)NC(=O)[C@H](CO)NC(=O)[C@H](Cc1c[nH]cn1)NC(=O)C(C)(C)NC(=O)[C@H](CC(C)C)NC(=O)[C@H](Cc1ccccc1)NC(=O)[C@H](CCC(=O)O)NC(=O)[C@H](C)NC(=O)[C@H](CC(C)C)NC(=O)[C@H](CCCNC(=N)N)NC(=O)[C@H](CCC(N)=O)NC(=O)[C@@H](NC(=O)[C@H](C)NC(=O)[C@@H]1CSSC[C@H](NC(=O)[C@H](CCCCN)NC(=O)[C@@H](N)CCCCNC(=O)CC[C@H](NC(=O)CCCCCCCCCCCCCCCCC(=O)O)C(=O)O)C(=O)N[C@@H](CC(N)=O)C(=O)N[C@@H]([C@@H](C)O)C(=O)N[C@@H](C)C(=O)N[C@@H]([C@@H](C)O)C(=O)N1)[C@@H](C)O)C(=O)N[C@@H](CC(C)C)C(=O)N1CCC[C@H]1C(=O)N1CCC[C@H]1C(=O)N[C@H](C(=O)N[C@@H](CC(N)=O)C(=O)N[C@H](C(=O)NCC(=O)N[C@@H](CO)C(=O)N[C@@H](CC(N)=O)C(=O)N[C@H](C(=O)N[C@@H](Cc1ccc(O)cc1)C(N)=O)[C@@H](C)O)C(C)C)[C@@H](C)O [Peptide 130] (H-K([γGlu-C18 diacid])KCNTATCATQRLAEFL[Aib]HSSHNFGPILPPTNVGSNTY-NH2; disulfide 3-8; N-terminus assumed)
